Data on two compounds can be found in patent US20180265467A1, “PYRAZOLIDINE DERIVATIVES AND RELATED COMPOUNDS” (SELVITA S.A., priority 2015, published 2018).

A value given as a limit tells only on which side of the number the result lay.

What is called IC50 is the midpoint of a concentration-inhibition curve. Low values mean greater potency in that assay, high ones weaker potency in that assay.

The test system of one assay is SNU-398 cells. Put plainly: SNU-398 cellular lactate production assay. Type of assay: cell-based. The conditions noted are these: Snu398 cells; shown in FIG. 1. The procedure: In each case, and by methods known to those practiced, measurement of cellular lactate production is used to measure the activity of compounds on cancer cells.
Cells are seeded on 96-well plate in complete culture medium (200 μL media/well) at a density of 80,000 SNU-398 cells/well. The following day, eight serial dilutions of the test compound is prepared in complete culture medium and added to cells in a fresh media for 2 h. Following incubation 30 μL of culture medium from each well is transferred to a corresponding well on a new 96-well plate. In parallel Lactate Standard (30 μL/well) (Sigma, Cat. # L7022) is prepared in order to create a standard curve. 60 μL of Lactate Reagent (P000024, M Dialysis AB) is added to each well containing lactate standards or test samples and Incubated in dark for 10 min at RT followed by measurement of OD at 530 nm in a microplate reader.
Background subtracted values derived from the lactate standard and sample readings are used to determine ED50 (or % of inhibition) from data obtained in SNU-398 cellular lactate production assay:
ED50 is a quantitative measure that indicates how much of a particular compound is needed to reduce SNU-398 lactate production by half. After normalization to DMSO-control, the value of ED50 is determined by the GraphPad Prism 5.0 [log(inhibitor) vs. normalized response—Variable slope]. […]

Another assay has as its target T1, LDHA (Homo sapiens, UniProt P00338).
T1 construct: purchased Abcam ab93699
Put plainly: LDHA assay (decrease in NADH fluorescence). The note with it: numeric bound given instead of a class symbol. Type of assay: biochemical. The procedure: LDHA and LDHB inhibitory activity of compounds of the present invention is quantified employing the decrease in fluorescence of the cofactor—NADH (being the result of oxidation of NADH to NAD+), over the reaction. […] All the experiments are performed in duplicates in a 96-well plate system (black, flat bottom, non-binding).
The procedure for preparation of the experimental plate is as follows (total volume of the reaction mixture: 200 μL/well):
Conditions for LDHA (Abcam, Cat. No# ab93699) Assay
Mixture of appropriate 1× concentrated reaction buffer (175 μL/well) and 40× concentrated LDHA (5 μL/well); pre-incubate for 30 mins at RT is combined with 20× concentrated pyruvate (10 μL/well) and 20× concentrated NADH (10 μL/well). Tested compounds are dissolved in solvent (DMSO, MeOH, EtOH), and then transferred to the V-bottom 96-well plate (mother plate). Single dilution (for % of inhibition determination) or 8-serial dilutions (for IC50 determination) are prepared using the appropriate solvent. The level of NADH fluorescence is then measured using multimode microplate reader (EnSpire, Perkin Elmer). The reaction should be monitored over 20 minutes with the full plate read performed each 5 minutes. Enzymatic reaction should be run at RT.
IC50 is a quantitative measure that indicates how much of a particular compound (inhibitor) is needed to inhibit a given biological process by half. […]

For the compound `O=c1c(Sc2ccccc2Cl)c(O)[nH]n1C(c1ccccc1)c1ccc(N2CCOCC2)cc1` (centres unmarked) [Example 8A, Ammonium 4-[(2-chlorophenyl)sulfanyl]-2-{[4-(morpholin-4-yl)phenyl](phenyl)methyl}-5-oxo-2,5-dihydro-1H-pyrazol-3-olate], the “Inhibition of lactate production” value with SNU-398 cells is on record as “Inhibition of lactate production”.
Compound `O=C1N[C@H](Cc2ccccc2)C(O)=C1Sc1cc(Br)ccc1Cl` [Example 6E, 5-benzyl-3-[(5-bromo-2-chlorophenyl)sulfanyl]pyrrolidine-2,4-dione] registered an IC50 on LDHA above 300 µM.
